Calls of active or inactive are those of the source. Rule as the data show it, for most assays here: actives have a measured Kd and inactives only a lower limit.
Legend:
[1] = biological target: Tyrosine-protein kinase Yes (Homo sapiens, UniProt P07947)
LIM domain kinase 1 = LIM domain kinase 1 (Homo sapiens, UniProt P53667)
[2] = biological target: Protein-tyrosine kinase 6 (Homo sapiens, UniProt Q13882)
[3] = biological target: T1, Non-receptor tyrosine-protein kinase TNK1 (Homo sapiens, UniProt Q13470)
T1 sequence (Q13470 whole entry): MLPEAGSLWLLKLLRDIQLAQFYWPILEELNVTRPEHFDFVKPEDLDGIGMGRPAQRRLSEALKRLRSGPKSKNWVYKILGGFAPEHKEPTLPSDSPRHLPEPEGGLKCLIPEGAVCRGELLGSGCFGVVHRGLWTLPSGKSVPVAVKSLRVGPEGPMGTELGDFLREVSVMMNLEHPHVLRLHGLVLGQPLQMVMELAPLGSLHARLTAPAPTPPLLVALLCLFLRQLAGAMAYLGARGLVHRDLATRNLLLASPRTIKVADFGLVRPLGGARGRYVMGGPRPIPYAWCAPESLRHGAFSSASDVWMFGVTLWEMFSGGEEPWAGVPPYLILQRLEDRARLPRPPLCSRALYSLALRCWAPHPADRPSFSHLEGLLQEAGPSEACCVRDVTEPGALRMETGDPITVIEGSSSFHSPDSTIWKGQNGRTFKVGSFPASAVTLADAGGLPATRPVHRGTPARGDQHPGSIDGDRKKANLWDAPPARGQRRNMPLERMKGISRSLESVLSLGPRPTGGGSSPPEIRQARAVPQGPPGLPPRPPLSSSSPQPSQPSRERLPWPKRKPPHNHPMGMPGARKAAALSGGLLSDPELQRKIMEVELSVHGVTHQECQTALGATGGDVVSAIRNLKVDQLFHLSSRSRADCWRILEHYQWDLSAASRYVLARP

[4] = biological target: RAC-alpha serine/threonine-protein kinase (Homo sapiens, UniProt P31749)
[5] = biological target: Tyrosine-protein kinase Lck (Homo sapiens, UniProt P06239)
[6] = biological target: T2, Ras-related protein Rab-10 (Homo sapiens, UniProt P61026)
T2 sequence (P61026 whole entry): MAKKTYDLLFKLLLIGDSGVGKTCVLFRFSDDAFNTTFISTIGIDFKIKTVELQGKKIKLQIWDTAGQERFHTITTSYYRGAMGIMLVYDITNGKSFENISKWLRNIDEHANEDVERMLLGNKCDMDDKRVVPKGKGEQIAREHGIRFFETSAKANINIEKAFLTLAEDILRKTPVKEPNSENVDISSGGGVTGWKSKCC

[7] = biological target: T3, Discoidin domain-containing receptor 2 (Homo sapiens, UniProt Q16832)
T3 sequence (Q16832 whole entry): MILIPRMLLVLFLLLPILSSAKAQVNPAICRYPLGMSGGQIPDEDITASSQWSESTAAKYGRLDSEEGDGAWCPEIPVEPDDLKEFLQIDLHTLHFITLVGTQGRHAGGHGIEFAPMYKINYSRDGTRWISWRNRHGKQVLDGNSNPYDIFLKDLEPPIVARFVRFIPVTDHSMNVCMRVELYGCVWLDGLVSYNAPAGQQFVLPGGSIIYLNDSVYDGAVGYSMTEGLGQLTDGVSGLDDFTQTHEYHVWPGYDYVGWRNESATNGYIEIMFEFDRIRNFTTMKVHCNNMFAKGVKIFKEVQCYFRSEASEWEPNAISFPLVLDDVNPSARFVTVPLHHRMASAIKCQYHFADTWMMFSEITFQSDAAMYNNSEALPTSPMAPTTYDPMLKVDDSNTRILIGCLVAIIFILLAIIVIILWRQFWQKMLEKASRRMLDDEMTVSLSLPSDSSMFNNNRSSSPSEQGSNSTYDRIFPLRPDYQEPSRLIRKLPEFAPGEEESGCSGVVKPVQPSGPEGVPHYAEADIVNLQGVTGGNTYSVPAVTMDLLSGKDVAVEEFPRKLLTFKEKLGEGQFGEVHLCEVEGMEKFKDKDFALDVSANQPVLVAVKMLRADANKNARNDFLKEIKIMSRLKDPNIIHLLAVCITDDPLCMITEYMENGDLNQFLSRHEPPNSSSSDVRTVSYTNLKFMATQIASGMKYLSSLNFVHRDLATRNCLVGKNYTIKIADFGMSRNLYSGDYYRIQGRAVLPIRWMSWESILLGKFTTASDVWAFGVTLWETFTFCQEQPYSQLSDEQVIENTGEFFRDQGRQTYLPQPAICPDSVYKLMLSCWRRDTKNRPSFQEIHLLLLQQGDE

[8] = biological target: T4, Serine/threonine-protein kinase 4 (Homo sapiens, UniProt Q13043)
T4 sequence (Q13043 whole entry): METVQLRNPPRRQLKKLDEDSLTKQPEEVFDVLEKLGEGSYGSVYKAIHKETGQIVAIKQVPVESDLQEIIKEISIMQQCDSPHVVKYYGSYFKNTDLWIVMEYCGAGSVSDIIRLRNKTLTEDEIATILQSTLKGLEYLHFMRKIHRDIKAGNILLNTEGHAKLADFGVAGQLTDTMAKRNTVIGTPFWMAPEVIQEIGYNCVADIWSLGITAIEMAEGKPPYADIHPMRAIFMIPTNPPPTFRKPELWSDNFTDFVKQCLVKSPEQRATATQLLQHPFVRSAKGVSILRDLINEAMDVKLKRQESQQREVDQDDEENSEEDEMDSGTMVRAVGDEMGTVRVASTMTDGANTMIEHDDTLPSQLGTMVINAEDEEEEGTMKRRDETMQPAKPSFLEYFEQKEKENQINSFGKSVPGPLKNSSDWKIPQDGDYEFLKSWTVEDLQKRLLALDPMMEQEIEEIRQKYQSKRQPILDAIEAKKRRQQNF

[9] = biological target: T5, Dual specificity mitogen-activated protein kinase kinase 5 (Homo sapiens, UniProt Q13163)
T5 sequence (Q13163 whole entry): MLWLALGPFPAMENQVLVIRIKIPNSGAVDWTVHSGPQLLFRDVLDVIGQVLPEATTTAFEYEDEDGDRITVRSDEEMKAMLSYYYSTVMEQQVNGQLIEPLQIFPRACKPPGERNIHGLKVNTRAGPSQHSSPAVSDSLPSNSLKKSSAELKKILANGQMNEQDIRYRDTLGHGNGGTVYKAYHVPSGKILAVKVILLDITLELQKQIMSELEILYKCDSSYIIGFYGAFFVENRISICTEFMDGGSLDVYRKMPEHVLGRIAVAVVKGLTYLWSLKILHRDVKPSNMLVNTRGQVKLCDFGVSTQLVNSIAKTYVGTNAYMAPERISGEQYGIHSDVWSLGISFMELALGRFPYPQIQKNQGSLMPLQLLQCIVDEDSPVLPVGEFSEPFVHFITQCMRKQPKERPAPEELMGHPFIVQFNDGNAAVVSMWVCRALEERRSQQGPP
Also: in the data inactive means no Kd found up to 30 µM.

Tyrosine-protein kinase Yes, sequence (P07947 whole entry, the tested form may be a part): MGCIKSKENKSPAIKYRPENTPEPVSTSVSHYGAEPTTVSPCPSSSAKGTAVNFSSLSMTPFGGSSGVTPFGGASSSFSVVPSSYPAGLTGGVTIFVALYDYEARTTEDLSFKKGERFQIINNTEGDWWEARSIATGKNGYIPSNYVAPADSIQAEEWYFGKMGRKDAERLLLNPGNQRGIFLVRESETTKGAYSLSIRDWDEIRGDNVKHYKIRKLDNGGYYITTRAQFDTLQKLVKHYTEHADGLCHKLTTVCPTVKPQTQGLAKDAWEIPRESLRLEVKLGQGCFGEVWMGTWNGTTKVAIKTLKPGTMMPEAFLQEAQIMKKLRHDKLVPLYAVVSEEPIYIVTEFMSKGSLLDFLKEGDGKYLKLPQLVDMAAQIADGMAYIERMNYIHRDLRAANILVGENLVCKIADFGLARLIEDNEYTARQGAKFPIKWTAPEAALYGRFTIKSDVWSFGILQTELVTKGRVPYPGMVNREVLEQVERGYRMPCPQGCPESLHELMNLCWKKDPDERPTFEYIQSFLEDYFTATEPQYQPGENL
Tyrosine-protein kinase Lck, sequence (P06239 whole entry): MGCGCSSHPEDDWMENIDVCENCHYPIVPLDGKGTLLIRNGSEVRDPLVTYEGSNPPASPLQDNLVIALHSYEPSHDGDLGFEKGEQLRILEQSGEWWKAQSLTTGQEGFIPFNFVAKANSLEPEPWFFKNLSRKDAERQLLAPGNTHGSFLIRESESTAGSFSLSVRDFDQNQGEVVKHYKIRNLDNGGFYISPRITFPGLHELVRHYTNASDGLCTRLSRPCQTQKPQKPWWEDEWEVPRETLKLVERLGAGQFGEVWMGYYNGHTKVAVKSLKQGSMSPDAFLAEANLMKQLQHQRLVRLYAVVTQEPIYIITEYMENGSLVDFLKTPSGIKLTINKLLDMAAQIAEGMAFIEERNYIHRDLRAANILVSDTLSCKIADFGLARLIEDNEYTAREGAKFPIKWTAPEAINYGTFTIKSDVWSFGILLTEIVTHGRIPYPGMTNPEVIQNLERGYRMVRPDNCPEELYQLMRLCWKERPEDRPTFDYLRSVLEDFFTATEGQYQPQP
RAC-alpha serine/threonine-protein kinase, sequence (P31749 whole entry): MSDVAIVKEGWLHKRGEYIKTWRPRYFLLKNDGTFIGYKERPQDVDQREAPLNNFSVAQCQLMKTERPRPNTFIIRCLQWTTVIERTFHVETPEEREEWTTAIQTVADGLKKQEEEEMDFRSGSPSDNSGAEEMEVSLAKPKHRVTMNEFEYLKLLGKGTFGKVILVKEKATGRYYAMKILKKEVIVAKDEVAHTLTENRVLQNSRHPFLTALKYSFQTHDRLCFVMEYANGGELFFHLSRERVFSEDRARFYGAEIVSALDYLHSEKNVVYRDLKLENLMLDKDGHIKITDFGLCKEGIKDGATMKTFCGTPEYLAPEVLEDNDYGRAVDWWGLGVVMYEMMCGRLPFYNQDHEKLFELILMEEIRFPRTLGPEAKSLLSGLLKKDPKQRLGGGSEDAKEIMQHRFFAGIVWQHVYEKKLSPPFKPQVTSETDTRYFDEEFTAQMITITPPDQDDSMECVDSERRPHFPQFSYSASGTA
Protein-tyrosine kinase 6, sequence (Q13882 whole entry): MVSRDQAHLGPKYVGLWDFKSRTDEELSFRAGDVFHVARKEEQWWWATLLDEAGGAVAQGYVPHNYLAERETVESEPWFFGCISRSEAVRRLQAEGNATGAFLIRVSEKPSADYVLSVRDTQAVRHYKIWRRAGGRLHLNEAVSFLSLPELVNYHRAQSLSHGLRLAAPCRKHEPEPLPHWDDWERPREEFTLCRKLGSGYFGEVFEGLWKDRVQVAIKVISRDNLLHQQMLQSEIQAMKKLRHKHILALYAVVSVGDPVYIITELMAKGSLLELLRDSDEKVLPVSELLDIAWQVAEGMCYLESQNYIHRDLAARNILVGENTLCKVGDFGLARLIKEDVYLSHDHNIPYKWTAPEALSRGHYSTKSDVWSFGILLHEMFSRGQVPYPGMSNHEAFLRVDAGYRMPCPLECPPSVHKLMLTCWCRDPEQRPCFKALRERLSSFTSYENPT
LIM domain kinase 1, sequence (P53667 whole entry, the tested form may be a part): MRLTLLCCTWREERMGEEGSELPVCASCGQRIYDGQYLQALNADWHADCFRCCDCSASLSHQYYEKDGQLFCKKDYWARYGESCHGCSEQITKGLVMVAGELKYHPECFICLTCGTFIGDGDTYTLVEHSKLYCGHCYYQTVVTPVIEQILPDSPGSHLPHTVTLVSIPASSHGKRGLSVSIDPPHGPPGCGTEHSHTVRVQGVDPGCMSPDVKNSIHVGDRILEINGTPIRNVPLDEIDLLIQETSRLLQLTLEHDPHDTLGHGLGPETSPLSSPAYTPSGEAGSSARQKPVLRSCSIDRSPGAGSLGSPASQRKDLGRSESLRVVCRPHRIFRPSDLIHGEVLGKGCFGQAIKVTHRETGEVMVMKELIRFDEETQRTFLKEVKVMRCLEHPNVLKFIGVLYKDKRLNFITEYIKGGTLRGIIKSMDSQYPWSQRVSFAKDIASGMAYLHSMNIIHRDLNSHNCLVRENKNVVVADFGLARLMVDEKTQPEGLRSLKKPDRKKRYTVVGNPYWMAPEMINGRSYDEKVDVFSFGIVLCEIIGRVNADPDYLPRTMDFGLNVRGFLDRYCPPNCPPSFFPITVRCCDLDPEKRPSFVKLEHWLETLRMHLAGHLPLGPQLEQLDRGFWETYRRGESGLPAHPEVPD

| Compound | Kd [1] | Kd (LIM domain kinase 1) | Kd [2] | Kd [3] | Kd [4] | Kd [5] | Kd [6] | Kd [7] | Kd [8] | Kd [9] |
| --- | --- | --- | --- | --- | --- | --- | --- | --- | --- | --- |
| Cc1ccc(S(=O)(=O)Nc2nc3ccccc3nc2Nc2ccc3nsnc3c2)cc1 | > 30 µM (inactive) | > 30 µM (inactive) | > 30 µM (inactive) | > 30 µM (inactive) | > 30 µM (inactive) | > 30 µM (inactive) | > 30 µM (inactive) | > 30 µM (inactive) | > 30 µM (inactive) | > 30 µM (inactive) |
| CN1CC[C@@H](c2c(O)cc(O)c3c(=O)cc(-c4ccccc4Cl)oc23)[C@@H]1CO | > 30 µM (inactive) | > 30 µM (inactive) | > 30 µM (inactive) | > 30 µM (inactive) | > 30 µM (inactive) | > 30 µM (inactive) | > 30 µM (inactive) | > 30 µM (inactive) | > 30 µM (inactive) | > 30 µM (inactive) |
| Cc1cc(-c2cc(O)ccc2Cl)cc2nnc(Nc3ccc(OCCN4CCCC4)cc3)nc12 | 0.001 µM (active) | > 30 µM (inactive) | > 30 µM (inactive) | > 30 µM (inactive) | > 30 µM (inactive) | 0.002 µM (active) | > 30 µM (inactive) | 0.004 µM (active) | > 30 µM (inactive) | > 30 µM (inactive) |
| Cn1ncc(Cl)c1-c1cc(C(=O)N[C@H](CN)Cc2cccc(F)c2)sc1Cl [AFURESERTIB] | > 30 µM (inactive) | > 30 µM (inactive) | > 30 µM (inactive) | > 30 µM (inactive) | – | > 30 µM (inactive) | > 30 µM (inactive) | > 30 µM (inactive) | > 30 µM (inactive) | > 30 µM (inactive) |
| Cc1ccc(NC(=O)c2ccc(CN3CC[C@H](N(C)C)C3)c(C(F)(F)F)c2)cc1Nc1nccc(-c2cncnc2)n1 [BAFETINIB] | > 30 µM (inactive) | > 30 µM (inactive) | > 30 µM (inactive) | > 30 µM (inactive) | > 30 µM (inactive) | – | > 30 µM (inactive) | 0.048 µM (active) | > 30 µM (inactive) | 11.4 µM (active) |
| CNC(=O)c1ccc(-c2cnc3ncc(Cc4ccc5ncccc5c4)n3n2)cc1F [CAPMATINIB] | > 30 µM (inactive) | > 30 µM (inactive) | > 30 µM (inactive) | > 30 µM (inactive) | > 30 µM (inactive) | > 30 µM (inactive) | – | > 30 µM (inactive) | > 30 µM (inactive) | > 30 µM (inactive) |
| CCc1cnn2c(NCc3ccc[n+]([O-])c3)cc(N3CCCC[C@H]3CCO)nc12 [DINACICLIB] | > 30 µM (inactive) | – | > 30 µM (inactive) | > 30 µM (inactive) | > 30 µM (inactive) | – | > 30 µM (inactive) | > 30 µM (inactive) | > 30 µM (inactive) | > 30 µM (inactive) |
| CN1CCN(c2ccc3nc(-c4c(N)c5c(F)cccc5[nH]c4=O)[nH]c3c2)CC1 [DOVITINIB] | – | – | – | – | – | – | > 30 µM (inactive) | – | – | – |
| COCCNCc1ccc(-c2cc3nccc(Oc4ccc(NC(=S)NC(=O)Cc5ccc(F)cc5)cc4F)c3s2)nc1 [GLESATINIB] | > 30 µM (inactive) | > 30 µM (inactive) | – | 1.49 µM (active) | > 30 µM (inactive) | 0.092 µM (active) | > 30 µM (inactive) | 1.49 µM (active) | > 30 µM (inactive) | > 30 µM (inactive) |
| Cc1cn(-c2cc(NC(=O)c3ccc(C)c(Nc4nccc(-c5cccnc5)n4)c3)cc(C(F)(F)F)c2)cn1 [NILOTINIB] | – | – | – | – | – | – | > 30 µM (inactive) | – | – | – |
| OCCn1cc(-c2cnc3nnn(Cc4ccc5ncccc5c4)c3n2)cn1 [PF-04217903] | > 30 µM (inactive) | – | > 30 µM (inactive) | > 30 µM (inactive) | > 30 µM (inactive) | – | > 30 µM (inactive) | > 30 µM (inactive) | > 30 µM (inactive) | > 30 µM (inactive) |
| O=C(Nc1cccc(Cl)c1)Nc1ncc(CCNc2ncnc3ccsc23)s1 [SNS-314] | > 30 µM (inactive) | – | – | > 30 µM (inactive) | – | – | > 30 µM (inactive) | 0.423 µM (active) | > 30 µM (inactive) | > 30 µM (inactive) |
| Nc1nc(N)c2nc(-c3cccc(O)c3)c(-c3cccc(O)c3)nc2n1 [TG100-115] | – | – | > 30 µM (inactive) | – | – | – | > 30 µM (inactive) | – | – | – |

Results, then the compound that gave them:

| Kd [1] | Kd (LIM domain kinase 1) | Kd [2] | Kd [3] | Kd [4] | Kd [5] | Kd [6] | Kd [7] | Kd [8] | Kd [9] | Compound |
| --- | --- | --- | --- | --- | --- | --- | --- | --- | --- | --- |
| – | 0.632 µM (active) | > 30 µM (inactive) | > 30 µM (inactive) | > 30 µM (inactive) | > 30 µM (inactive) | > 30 µM (inactive) | 28.2 µM (active) | > 30 µM (inactive) | 9.43 µM (active) | CCN1CCN(Cc2ccc(-c3cc4c(N[C@H](C)c5ccccc5)ncnc4[nH]3)cc2)CC1 [AEE-788] |
| > 30 µM (inactive) | 0.984 µM (active) | – | > 30 µM (inactive) | – | – | > 30 µM (inactive) | > 30 µM (inactive) | – | 1.48 µM (active) | Cc1nc(N)sc1-c1ccnc(Nc2ccc(N3CCOCC3)cc2)n1 [CYC-116] |
| 0.441 µM (active) | – | – | – | – | – | > 30 µM (inactive) | 3.42 µM (active) | – | > 30 µM (inactive) | Cc1cc(Nc2cc(N3CCN(C)CC3)nc(/C=C/c3ccccc3)n2)n[nH]1 [ENMD-2076] |
| – | – | – | – | – | – | > 30 µM (inactive) | – | – | – | CCn1c(-c2nonc2N)nc2c(C#CC(C)(C)O)ncc(OC[C@H]3CCCNC3)c21 [GSK-690693] |
| > 30 µM (inactive) | – | > 30 µM (inactive) | > 30 µM (inactive) | > 30 µM (inactive) | > 30 µM (inactive) | > 30 µM (inactive) | > 30 µM (inactive) | > 30 µM (inactive) | > 30 µM (inactive) | O=C(Nc1ccc(-c2ccnc(Nc3ccc(N4CCOCC4)cc3)n2)cc1)C1CCCN1 (stereo unspecified) [XL-019] |

— ChEMBL document CHEMBL3991601, “The target landscape of clinical kinase drugs” (Science, 2017)
